Reference: PubChem BioAssay (NCI)
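Growth conditions: 96-well plates. Treatment: test compound, 48 hours, 5 concentrations. Analysis: linear interpolation between bracketing concentrations; unreached endpoints set to highest concentration. The concentration for full growth arrest is given as TGI.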

Key:
Test in all cases: inhibition of tumour cell growth, NCI panel, 48 h
A498 renal = test system: A498 renal
ACHN renal = test system: ACHN renal
BT-549 breast = test system: BT-549 breast
COLO 205 colon = test system: COLO 205 colon
HCT-116 colon = test system: HCT-116 colon
HL-60(TB) leukemia = test system: HL-60(TB) leukemia
HOP-62 NSCLC = test system: HOP-62 NSCLC
M14 melanoma = test system: M14 melanoma
MDA-MB-231 breast = test system: MDA-MB-231 breast
NCI-H460 lung = test system: NCI-H460 lung
NCI-H522 lung = test system: NCI-H522 lung
NCI/ADR-RES ovarian = test system: NCI/ADR-RES ovarian
OVCAR-4 ovarian = test system: OVCAR-4 ovarian
OVCAR-8 ovarian = test system: OVCAR-8 ovarian
PC-3 prostate = test system: PC-3 prostate
SF-295 CNS = test system: SF-295 CNS
SK-OV-3 ovarian = test system: SK-OV-3 ovarian
SN12C renal = test system: SN12C renal
SNB-75 CNS = test system: SNB-75 CNS
TK-10 renal = test system: TK-10 renal

O=c1/c(=C/c2ccc([N+](=O)[O-])o2)sc2n1[C@@H](c1ccc3c(c1)OCO3)C=C(c1cc(F)c(Cl)cc1Cl)N=2
TGI (A498 renal): > 100 µM
TGI (ACHN renal): 33.2 µM
TGI (BT-549 breast): 35.1 µM
TGI (COLO 205 colon): 71.4 µM
TGI (HCT-116 colon): 28 µM
TGI (HL-60(TB) leukemia): 45.5 µM
TGI (HOP-62 NSCLC): 58.9 µM
TGI (M14 melanoma): 31.8 µM
TGI (MDA-MB-231 breast): 50.4 µM
TGI (NCI-H460 lung): 49.8 µM
TGI (NCI-H522 lung): 65.6 µM
TGI (NCI/ADR-RES ovarian): > 100 µM
TGI (OVCAR-4 ovarian): 32.6 µM
TGI (OVCAR-8 ovarian): 56.4 µM
TGI (PC-3 prostate): > 100 µM
TGI (SF-295 CNS): > 100 µM
TGI (SK-OV-3 ovarian): > 100 µM
TGI (SN12C renal): 56.7 µM
TGI (SNB-75 CNS): 37.4 µM
TGI (TK-10 renal): 47.8 µM

c1cc(C[S+]2CCCC2)sc1C[S+]1CCCC1
TGI (A498 renal): > 100 µM
TGI (ACHN renal): > 100 µM
TGI (BT-549 breast): > 100 µM
TGI (COLO 205 colon): > 100 µM
TGI (HCT-116 colon): > 100 µM
TGI (HL-60(TB) leukemia): > 100 µM
TGI (HOP-62 NSCLC): > 100 µM
TGI (M14 melanoma): > 100 µM
TGI (MDA-MB-231 breast): > 100 µM
TGI (NCI-H460 lung): > 100 µM
TGI (NCI-H522 lung): > 100 µM
TGI (NCI/ADR-RES ovarian): > 100 µM
TGI (OVCAR-4 ovarian): > 100 µM
TGI (OVCAR-8 ovarian): > 100 µM
TGI (PC-3 prostate): > 100 µM
TGI (SF-295 CNS): > 100 µM
TGI (SK-OV-3 ovarian): > 100 µM
TGI (SN12C renal): > 100 µM
TGI (SNB-75 CNS): > 100 µM
TGI (TK-10 renal): > 100 µM

O=C(O)C1=NN(c2ccc(S(=O)(=O)O)cc2)C2(C1)SCC(=O)N2c1nc2ccccc2s1 (stereo not given)
TGI (A498 renal): > 100 µM
TGI (ACHN renal): > 100 µM
TGI (BT-549 breast): > 100 µM
TGI (COLO 205 colon): > 100 µM
TGI (HCT-116 colon): > 100 µM
TGI (HL-60(TB) leukemia): > 100 µM
TGI (HOP-62 NSCLC): > 100 µM
TGI (M14 melanoma): > 100 µM
TGI (MDA-MB-231 breast): > 100 µM
TGI (NCI-H460 lung): > 100 µM
TGI (NCI-H522 lung): > 100 µM
TGI (NCI/ADR-RES ovarian): > 100 µM
TGI (OVCAR-4 ovarian): > 100 µM
TGI (OVCAR-8 ovarian): > 100 µM
TGI (PC-3 prostate): > 100 µM
TGI (SF-295 CNS): > 100 µM
TGI (SK-OV-3 ovarian): > 100 µM
TGI (SN12C renal): > 100 µM
TGI (SNB-75 CNS): > 100 µM
TGI (TK-10 renal): > 100 µM

COCN1C(=O)[C@@H]2CCCN2C(=O)c2ccc([N+](=O)[O-])cc21
TGI (A498 renal): > 100 µM
TGI (ACHN renal): > 100 µM
TGI (BT-549 breast): > 100 µM
TGI (COLO 205 colon): > 100 µM
TGI (HCT-116 colon): > 100 µM
TGI (HL-60(TB) leukemia): > 100 µM
TGI (HOP-62 NSCLC): > 100 µM
TGI (M14 melanoma): > 100 µM
TGI (MDA-MB-231 breast): > 100 µM
TGI (NCI-H460 lung): > 100 µM
TGI (NCI-H522 lung): > 100 µM
TGI (NCI/ADR-RES ovarian): > 100 µM
TGI (OVCAR-4 ovarian): > 100 µM
TGI (OVCAR-8 ovarian): > 100 µM
TGI (PC-3 prostate): > 100 µM
TGI (SF-295 CNS): > 100 µM
TGI (SK-OV-3 ovarian): > 100 µM
TGI (SN12C renal): > 100 µM
TGI (SNB-75 CNS): > 100 µM
TGI (TK-10 renal): > 100 µM

O=S(=O)(O)C(Cc1nc2ccccc2[nH]1)S(=O)(=O)OCCC1S(=O)(=O)OCCOS1(=O)=O (stereo not given)
TGI (A498 renal): > 100 µM
TGI (ACHN renal): > 100 µM
TGI (BT-549 breast): > 100 µM
TGI (COLO 205 colon): > 100 µM
TGI (HCT-116 colon): > 100 µM
TGI (HL-60(TB) leukemia): > 100 µM
TGI (HOP-62 NSCLC): > 100 µM
TGI (M14 melanoma): > 100 µM
TGI (MDA-MB-231 breast): > 100 µM
TGI (NCI-H460 lung): > 100 µM
TGI (NCI-H522 lung): > 100 µM
TGI (NCI/ADR-RES ovarian): > 100 µM
TGI (OVCAR-4 ovarian): > 100 µM
TGI (OVCAR-8 ovarian): > 100 µM
TGI (PC-3 prostate): > 100 µM
TGI (SF-295 CNS): > 100 µM
TGI (SK-OV-3 ovarian): > 100 µM
TGI (SN12C renal): > 100 µM
TGI (SNB-75 CNS): > 100 µM
TGI (TK-10 renal): > 100 µM
